Results reported in US6429312B2, “N-aminoalkyldibenzothiopencarboxamide receptor subtype specific ligands” (Neurogen Corporation, priority 1996, dated 2002).
Where a name gives a salt, the structure may show the parent alone. Read-outs that look alike come from different tables or passages of the source.

Columns and labels:
D3 receptors = target: T1, D3 receptors (Chlorocebus aethiops, UniProt P52703); test: D3 receptor binding assay (3H-YM 09151-2 displacement); set-up: species or system African Green monkey
T1 construct: expressed in transfected cells; host or cells: COS cells
T1 sequence (P52703 whole entry): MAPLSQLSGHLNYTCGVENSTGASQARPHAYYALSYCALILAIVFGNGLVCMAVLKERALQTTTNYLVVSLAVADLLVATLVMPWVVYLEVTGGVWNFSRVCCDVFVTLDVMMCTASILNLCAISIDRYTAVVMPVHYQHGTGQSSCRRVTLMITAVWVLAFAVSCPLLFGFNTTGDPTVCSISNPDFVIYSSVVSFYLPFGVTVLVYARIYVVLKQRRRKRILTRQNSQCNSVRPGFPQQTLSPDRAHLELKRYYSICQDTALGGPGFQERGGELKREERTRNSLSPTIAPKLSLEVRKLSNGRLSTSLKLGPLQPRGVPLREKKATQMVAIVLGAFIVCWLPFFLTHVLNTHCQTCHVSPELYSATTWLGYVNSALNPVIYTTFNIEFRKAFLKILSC
Experimental: (§1) ASSAY FOR D2 AND D3 RECEPTOR BINDING ACTIVITY
(§2) Pellets of COS cells containing recombinantly produced D2 or D3 receptors from African Green monkey were used for the assays. The sample is homogenized in 100 volumes (w/vol) of 0.05 M Tris HCl buffer at 4° C. and pH 7.4. The sample is then centrifuged at 30,000×g and resuspended and rehomogenized. The sample is then centrifuged as described and the final tissue sample is frozen until use. The tissue is resuspended 1:20 (wt/vol) in 0.05 M Tris HCl buffer containing 100 mM NaCl.
(§3) Incubations are carried out at 48° C. and contain 0.4 ml of tissue sample, 0.5 nM ^3H-YM 09151-2 and the compound of interest in a total incubation of 1.0 ml. Nonspecific binding is defined as that binding found in the presence of […] spiperone; without further additions, nonspecific binding is less than 20% of total binding. The binding characteristics of representative compounds of the invention for D2 and D3 receptor subtypes are shown in Table 2 for rat striatal homogenates.

D2 receptors = target: T2, D2 receptors (Chlorocebus aethiops, UniProt P52702); test: D2 receptor binding assay (3H-YM 09151-2 displacement); set-up: species or system African Green monkey
T2 construct: expressed in transfected cells; host or cells: COS cells
T2 sequence (P52702 whole entry): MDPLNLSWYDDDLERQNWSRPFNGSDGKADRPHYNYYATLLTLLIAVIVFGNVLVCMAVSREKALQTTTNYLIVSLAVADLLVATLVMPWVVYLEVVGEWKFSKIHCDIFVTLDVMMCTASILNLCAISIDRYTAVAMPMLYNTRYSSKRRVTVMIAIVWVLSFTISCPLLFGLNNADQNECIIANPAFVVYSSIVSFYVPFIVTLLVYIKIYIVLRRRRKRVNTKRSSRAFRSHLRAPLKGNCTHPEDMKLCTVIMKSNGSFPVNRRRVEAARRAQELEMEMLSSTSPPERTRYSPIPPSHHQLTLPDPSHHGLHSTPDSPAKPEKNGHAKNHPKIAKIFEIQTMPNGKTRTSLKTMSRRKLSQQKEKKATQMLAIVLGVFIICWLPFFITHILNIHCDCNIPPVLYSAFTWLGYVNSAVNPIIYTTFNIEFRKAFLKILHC
Experimental: as §1, §2, §3

O=C(NCCCCN1CCN(c2cccc3ccccc23)CC1)c1ccc2sc3ccccc3c2c1 [Compound 2, N-(1-{4-[4-(1-Naphthyl)piperazin-1-yl]}butyl)-2-dibenzothiophenecarboxamide hydrochloride]
Ki (D3 receptors; COS cells containing recombinantly produced D3 receptors, 0.5 nM 3H-YM 09151-2, nonspecific binding with 1 mM spiperone, read-out: D3 Ki): 5 nM | Ki (D2 receptors; COS cells containing recombinantly produced D2 receptors, 0.5 nM 3H-YM 09151-2, nonspecific binding with 1 mM spiperone, read-out: D2 Ki): 242 nM

O=C(NCCCCN1CCN(c2cccc(Cl)c2Cl)CC1)c1ccc2sc3ccccc3c2c1 [Compound 1, N-(1-{4-[4-(2,3-Dichlorophenyl)piperazin-1-yl]}butyl)-2-dibenzothiophenecarboxamide hydrochloride]
Ki (D3 receptors): 3.5 nM | Ki (D2 receptors): 285 nM

O=C(NCCCCN1CCN(c2cccc3ccccc23)CC1)c1ccc2sc3ccccc3c2c1 (as salt: hydrochloride) [Compound 2, N-(1-{4-[4-(1-Naphthyl)piperazin-1-yl]}butyl)-2-dibenzothiophenecarboxamide hydrochloride]
melting point: 225 to 228 °C
